Reference: patent US4508663A, “Process for preparing thiosulfenamide derivatives of N-phosphonomethylglycinonitriles” (Monsanto Company, priority 1983, dated 1985)

Columns and labels:
Assay in all cases: post-emergence herbicidal activity, greenhouse
Type in all cases: in vivo
Details in all cases: Table I, 4 WAT
Downy Brome = test system: Downy Brome
Excerpt: (§1) A good grade of top soil is placed in aluminum pans having holes in the bottom and compacted to a depth of 0.95 to 1.27 cm. from the top of the pan. A predetermined number of seeds of each of several dicotyledonous and monocotyledonous annual plant species and/or vegetative propagules for the perennial plant species are placed on the soil and pressed into the soil surface. The seeds and/or vegetative propagules are covered with soil and leveled. The pans are then placed on a sand bench in the greenhouse and watered from below as needed. After the plants reach the desired age (two to three weeks), each pan except for the control pans is removed individually to a spraying chamber and sprayed by means of an atomizer operating at a positive air pressure of approximately 1.46 kg/cm^2 absolute. The atomizer contains 6 ml. of a solution or suspension of the chemical. In that 6 ml., is an amount of a cyclohexanone emulsifying agent mixture to give a spray solution or suspension which contains about 0.4% by weight of the emulsifier. The spray solution or suspension contains a sufficient amount of the candidate chemical in order to give application rates corresponding to those set forth in the tables. The spray solution is prepared by taking an aliquot of a 1.0% by weight stock solution or suspension of the candidate chemical in an organic solvent such as acetone or tetrahydrofuran or in water. The emulsifying agent employed is a mixture comprising 35 weight percent butylamine dodecylbenzene sulfonate and 65 weight percent of a tall oil ethylene oxide condensate having about 11 moles of ethylene oxide per mole of tall oil. The pans are returned to the greenhouse and watered as before and the injury to the plants as compared to the control is observed at approximately two and four weeks as indicated in the tables under WAT and the results recorded. In some instances, the two-week observations are omitted.
(§2) The post-emergence herbicidal activity index used in Table I is as follows: […]

Lambsquarters = test system: Lambsquarters
Excerpt: as §1, §2

Morningglory = test system: Morningglory
Excerpt: as §1, §2

Quackgrass = test system: Quackgrass
Excerpt: as §1, §2

Johnsongrass = test system: Johnsongrass
Excerpt: as §1, §2

Yellow Nutsedge = test system: Yellow Nutsedge
Excerpt: as §1, §2

Canada Thistle = test system: Canada Thistle
Excerpt: as §1, §2

Cocklebur = test system: Cocklebur
Excerpt: as §1, §2

Smartweed = test system: Smartweed
Excerpt: as §1, §2

Velvetleaf = test system: Velvetleaf
Excerpt: as §1, §2

Barnyardgrass = test system: Barnyardgrass
Excerpt: as §1, §2

## CCCCCCCCSSN(CC#N)CP(=O)(Oc1ccccc1)Oc1ccccc1 [II, Phosphonic acid, [[(cyanomethyl)(octyldithio)-amino]methyl]-, diphenyl ester]
Downy Brome; 5.6 kg/h
  post-emergence herbicidal activity index: 1 (25-49% control)
Downy Brome; 11.2 kg/h
  post-emergence herbicidal activity index: 0 (0-24% control)
Lambsquarters; 5.6 kg/h
  post-emergence herbicidal activity index: 3 (75-99% control)
Lambsquarters; 11.2 kg/h
  post-emergence herbicidal activity index: 3 (75-99% control)
Morningglory; 5.6 kg/h
  post-emergence herbicidal activity index: 2 (50-74% control)
Morningglory; 11.2 kg/h
  post-emergence herbicidal activity index: 2 (50-74% control)
Quackgrass; 5.6 kg/h
  post-emergence herbicidal activity index: 0 (0-24% control)
Quackgrass; 11.2 kg/h
  post-emergence herbicidal activity index: 1 (25-49% control)
Johnsongrass; 5.6 kg/h
  post-emergence herbicidal activity index: 3 (75-99% control)
Johnsongrass; 11.2 kg/h
  post-emergence herbicidal activity index: 2 (50-74% control)
Yellow Nutsedge; 5.6 kg/h
  post-emergence herbicidal activity index: 2 (50-74% control)
Yellow Nutsedge; 11.2 kg/h
  post-emergence herbicidal activity index: 2 (50-74% control)
Canada Thistle; 5.6 kg/h
  post-emergence herbicidal activity index: 1 (25-49% control)
Canada Thistle; 11.2 kg/h
  post-emergence herbicidal activity index: 1 (25-49% control)
Cocklebur; 5.6 kg/h
  post-emergence herbicidal activity index: 2 (50-74% control)
Cocklebur; 11.2 kg/h
  post-emergence herbicidal activity index: 2 (50-74% control)
Smartweed; 5.6 kg/h
  post-emergence herbicidal activity index: 0 (0-24% control)
Smartweed; 11.2 kg/h
  post-emergence herbicidal activity index: 1 (25-49% control)
Velvetleaf; 5.6 kg/h
  post-emergence herbicidal activity index: 1 (25-49% control)
Velvetleaf; 11.2 kg/h
  post-emergence herbicidal activity index: 1 (25-49% control)
Barnyardgrass; 5.6 kg/h
  post-emergence herbicidal activity index: 1 (25-49% control)
Barnyardgrass; 11.2 kg/h
  post-emergence herbicidal activity index: 2 (50-74% control)
